This note sets out measurements from patent publication US5719278A, “Tricyclic benzazepine vasopressin antagonists” (American Cyanamid Company, priority 1996, dated 1998).

In one assay the target is T1, Rat Hepatic V1 Receptors (Rattus norvegicus, UniProt P30560).
T1 construct: Rat liver plasma membranes expressing the vasopressin V1 receptor subtypes; from tissue; host or cells: rat liver plasma membranes
Description: Binding Assay to Rat Hepatic V1 Receptors. The settings on record: Rat Hepatic V1 Receptors (no asterisk). The method, then:
Binding Assay to Rat Hepatic V1 Receptors
Rat liver plasma membranes expressing the vasopressin V1 receptor subtypes are isolated by sucrose density gradient according to the method described by Lesko et al., (1973). These membranes are quickly suspended in 50.0 mM Tris.HCl buffer, pH 7.4, containing 0.2% bovine serum albumin (BSA) and 0.1 mM phenylmethylsulfonylfluoride (PMSF) and kept frozen at -70° C. until used in subsequent binding experiments. For binding experiments, the following is added to the wells of a ninety-six well format microtiter plate: 100 μl of 100.0 mM Tris.HCl buffer containing 10.0 mM MgCl2, 0.2% heat inactivated BSA and a mixture of protease inhibitors: leupeptin, 1.0 mg %; aprotinin, 1.0 mg %, 1,10-phenanthroline,2.0 mg %; trypsin inhibitor, 10.0 mg % and 0.1 mM PMSF, 20.0 μl of [phenylalanyl-3,4,5-^3 H] vasopressin (S.A. 45.1 Ci/mmole) at 0.8 nM, and the reaction initiated by the addition of 80 μl of tissue membranes containing 20 μg of tissue protein. The plates are kept undisturbed on the bench top at room temperature for 120 min. to reach equilibrium. Non-specific samples are assayed in the presence of 0.1 μM of the unlabeled antagonist phenylalanylvasopressin, added in 20.0 μl volume to a final incubation volume of 200 μl. Upon completion of binding, the content of each well is filtered off, using a Brandel® cell Harvester (Gaithersburg, Md.). The radioactivity trapped on the filter disk by the ligand-receptor complex is assessed by liquid scintillation counting in a Packard LS Counter, with an efficiency of 65% for tritium. The data are analyzed for IC50 values by the LUNDON-2 program for competition (LUNDON SOFTWARE, Ohio).

A further assay deals with Vasopressin V2. Description: Vasopressin V2 Antagonist Activity in Conscious Hydrated Rats. The format is in vivo, rat. The settings on record: 10 mg/kg orally, N = 2, AVP 0.4 μg/kg intraperitoneally. The method, then:
Vasopressin V2 Antagonist Activity in Conscious Hyrdated Rats
Conscious hydrated rats are treated with compounds under study from 0.1 to 100 mg/kg orally or vehicle. Two to four rats are used for each compound. One hour later, arginine vasopressin (AVP, antidiuretic hormone, ADH) dissolved in peanut oil is administered at 0.4 μg/kg intraperitoneally. Two rats in each test would not receive arginine vasopressin but only the vehicle (peanut oil) to serve as water-loading control. Twenty minutes later each rat is given 30 mL/kg of deionized water orally by gavage and is placed individually in a metabolic cage equipped with a funnel and a graduated glass cylinder to collect urine for four hours. Urine volume is measured and osmolality analyzed by use of a Fiske One-Ten osmometer (Fiske Assoc., Norwood, Mass. U.S.A.). Urinary sodium, potassium, and chloride are analyzed by use of ion-specific electrodes in a Beckman E3(Electrolyte 3) Analyzer.
In the following results, […] and decreased osmolality relative to AVP-control indicates activity.

Another assay concerns the target T2, oxytocin receptors (Rattus norvegicus, UniProt P70536).
T2 construct: The uteri are dissected out, cleaned of fat and connective tissues; from tissue; host or cells: uterus of DES-treated female Sprague-Dawley rats
T2 sequence (P70536 1-388): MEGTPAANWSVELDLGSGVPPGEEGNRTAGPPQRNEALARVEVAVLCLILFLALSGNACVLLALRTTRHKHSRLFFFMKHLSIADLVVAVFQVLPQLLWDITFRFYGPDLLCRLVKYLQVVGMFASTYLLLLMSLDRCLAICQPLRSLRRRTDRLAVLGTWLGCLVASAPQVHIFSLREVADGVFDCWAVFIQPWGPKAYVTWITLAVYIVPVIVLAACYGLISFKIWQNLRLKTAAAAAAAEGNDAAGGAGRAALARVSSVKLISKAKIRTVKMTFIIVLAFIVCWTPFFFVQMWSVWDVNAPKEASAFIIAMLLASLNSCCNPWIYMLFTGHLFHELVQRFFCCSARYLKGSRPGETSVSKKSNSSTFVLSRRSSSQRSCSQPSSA
The assay is described as follows: Oxytocin Receptor Binding. The settings on record: for IC50: 1.0 nM [^3 H]OT, 60 min., 22° C. The arrangement: species or system Sprague-Dawley rat. The method, then: Oxytocin Receptor Binding
Female Sprague-Dawley rats weighing approximately 200-250 g are injected intramuscularly (i.m.) with 0.3 mg/kg of body weight of diethylstilbestrol (DES). The rats are sacrificed 18 hours later under pentobarbital anesthesia. The uteri are dissected out, cleaned of fat and connective tissues and rinsed in 50 ml of normal saline. The tissue pooled from six rats is homogenized in 50 ml of […] TriS.HCl, containing 0.5 mM dithiothreitol and 1.0 mM EDTA, adjusted to pH 7.4, using a polytron at setting 6 with three passes of 10 sec each. The homogenate is passed through two (2) layers of cheesecloth and the filtrate contrifuged at 1000×g for 10 min. The clear supernatant is removed and recentrifuged at 165,000×g for 30 min. The resulting pellet containing the oxytocin receptors is resuspended in 50.0 mM Tris.HCl containing 5.0 mM MgCl2 at pH 7.4, to give a protein concentration of 2.5 mg/ml of tissue suspension. This preparation is used in subsequent binding assays with [^3 H]Oxytocin.
Binding of 3,5-[^3 H]Oxytocin ([^3 H]OT) to its receptors is done in microtiter plates using [^3 H]OT, at various concentrations, in an assay buffer of 50.0 mM Tris.HCl, pH 7.4 and containing 5.0 mM MgCl2, and a mixture of protease inhibitors: BSA, 0.1 mg; aprotinin, 1.0 mg; 1,10-phenanthroline, 2.0 mg; […], 10.0 mg; and PMSF, 0.3 mg per 100 ml of buffer solution. Non-specific binding is determined in the presence of 1.0 uM unlabeled OT. The binding reaction is terminated after 60 min., at 22° C., by rapid filtration through glass fiber filters using a Brandel® cell harvester (Biomedical Research and Development Laboratories, Inc., Gaithersburg, Md.). Competition experiments are conducted at equilibrium using 1.0 nM [^3 H]OT and varying the concentration of the displacing agents. The concentrations of agent displacing 50% of [^3 H]OT at its sites (IC50) are calculated by a computer assisted LUNDON-2 program (LUNDON SOFTWARE INC., Ohio, U.S.A.).

Assay [1] deals with T3, Rat Kidney Medullary V2 Receptors (Rattus norvegicus, UniProt Q00788).
T3 construct: Medullary tissues from rat kidneys are dissected out; from tissue; host or cells: rat kidney medulla membranes
Description: Binding Assay to Rat Kidney Medullary V2 Receptors. The settings on record: Rat Kidney Medullary V2 Receptors (no asterisk). The method, then:
Binding Assay to Rat Kidney Medullary V2 Receptors
Medullary tissues from rat kidneys are dissected out, cut into small pieces and let soak in a […] sodium chloride solution containing 1.0 mM EDTA with many changes of the liquid phase, until the solution is clear of blood. The tissue is homogenized in a 0.25M sucrose solution containing 1.0 mM EDTA and 0.1 mM PMSF using a Potter-Elvehjem homogenizer with a teflon pestle. The homogenate is filtered through several layers (4 layers) of cheese cloth. The filtrate is rehomogenized using a dounce homogenizer, with a tight fitting pestle. The final homogenate is contrifuged at 1500×g for 15 min. The nuclear pellet is discarded and the supernatant fluid recentrifuged at 40,000×g for 30 min. The resulting pellet formed contains a dark inner part with the exterior, slightly pink. The pink outer part is suspended in a small amount of 50.0 mM Tris.HCl buffer, pH 7.4. The protein content is determined by the Lowry's method (Lowry et al, J. Biol. Chem., 1953). The membrane suspension is stored at -70° C., in 50.0 mM Tris.HCl, containing 0.2% inactivated BSA and 0.1 mM PMSF in aliquots of 1.0 ml containing 10.0 mg protein per ml of suspension until use in subsequent binding experiments.
For binding experiments, the following is added in μl volume to wells of a 96 well format of a microtiter plate: 100.0 μl of 100.0 mM Tris.HCl buffer containing 0.2% heat inactivated BSA, 10.0 mM MgCl2 and a mixture of protease inhibitors: leupeptin, 1.0 mg %; aprotinin, 1.0 mg %; 1,10-phenanthroline, 2.0 mg %; trypsin inhibitor, 10.0 mg % and 0.1 mM PMSF, 20.0 μl of [^3 H]Arginine^8, vasopressin (S.A. 75.0 Ci/mmole) at 0.8 nM and the reaction initiated by the addition of 80.0 μl of tissue membranes (200.0 μg tissue protein). The plates are left undisturbed on the bench top for 120 min. to reach equilibrium. Non-specific binding is assessed in the presence of 1.0 μM of unlabeled ligand, added in 20 μl volume. For test compounds, these are solubilized in 50% dimethylsulfoxide (DMSO) and added in 20.0 μl volume to a final incubation volume of 200 μl. Upon completion of binding, the content of each well is filtered off, using a Brandel® cell Harvester (Gaithersburg, Md.). The radioactivity trapped on the filter disk by the ligand-receptor complex is assessed by liquid scintillation counting in a Packard LS Counter, with an efficiency of 65% for tritium. The data are analyzed for IC50 values by the LUNDON-2 program for competition (LUNDON SOFTWARE, Ohio).

T1 sequence (P30560 whole entry): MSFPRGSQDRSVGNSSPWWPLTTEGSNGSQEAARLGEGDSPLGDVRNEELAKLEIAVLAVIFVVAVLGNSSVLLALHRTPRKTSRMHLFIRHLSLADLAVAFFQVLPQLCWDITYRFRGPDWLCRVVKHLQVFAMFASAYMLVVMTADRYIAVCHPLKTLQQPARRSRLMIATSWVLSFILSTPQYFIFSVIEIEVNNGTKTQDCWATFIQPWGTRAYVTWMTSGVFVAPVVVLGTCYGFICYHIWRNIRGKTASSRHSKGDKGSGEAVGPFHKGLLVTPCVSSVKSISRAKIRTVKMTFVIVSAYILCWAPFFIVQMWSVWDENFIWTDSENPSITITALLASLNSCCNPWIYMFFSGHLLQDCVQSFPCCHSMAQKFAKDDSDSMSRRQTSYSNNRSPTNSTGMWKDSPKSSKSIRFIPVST
T3 sequence (Q00788 whole entry): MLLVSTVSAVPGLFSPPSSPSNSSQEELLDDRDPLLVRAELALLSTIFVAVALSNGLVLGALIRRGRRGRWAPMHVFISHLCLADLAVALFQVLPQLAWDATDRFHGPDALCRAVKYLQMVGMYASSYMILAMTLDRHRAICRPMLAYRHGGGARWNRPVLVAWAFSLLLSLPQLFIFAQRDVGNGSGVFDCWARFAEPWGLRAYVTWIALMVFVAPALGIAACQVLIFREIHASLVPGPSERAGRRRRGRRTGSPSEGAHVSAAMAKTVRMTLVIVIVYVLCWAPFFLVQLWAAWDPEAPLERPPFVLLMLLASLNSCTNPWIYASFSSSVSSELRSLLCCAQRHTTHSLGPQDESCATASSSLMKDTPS

As to `Cc1ccc(F)cc1C(=O)Nc1ccc(C(=O)N2CCc3cn[nH]c3-c3sccc32)cc1` [Example 2, N-[4-[(4,5-Dihydropyrazolo[3,4-d]thieno[3,2-b]azepin-6(1H)-yl)carbonyl]phenyl]-5-fluoro-2methylbenzamide], the IC50 at Rat Hepatic V1 Receptors is 1.7 µM. Moreover, in the assay on Vasopressin V2, the “Urine Vol. (ml/4 hrs.)” value is listed as 17.8 ml/4 hrs. Besides, the “Osmolality (mOsm/kg)” value in the assay with Vasopressin V2 (urine) is listed as 429 mOsm/kg. At oxytocin receptors, the IC50 amounted to 1300 nM and testing at 10 µM gave an inhibition of 91%.

For `Cn1cc2c(n1)-c1sccc1N(C(=O)c1ccc(NC(=O)C3CCCCC3)cc1)CC2` [Example 6, N-[4-[[4,5-Dihydro-2-methylpyrazolo[3,4-d]thieno[3,2-b]-azepin-6(2H)-yl]carbonyl]phenyl]cyclohexane carboxamide], the results for the IC50 (at Rat Hepatic V1 Receptors; at oxytocin receptors; in assay [1]) were 4.7 µM, 1700 nM and 0.23 µM, respectively. Moreover, the inhibition at 10 µM on oxytocin receptors is 94%.

As usually defined, the IC50 is the concentration that inhibits the measured activity by half. In general, inhibition refers to the drop in the measured response relative to a control, in per cent. Higher therefore signals strong suppression.
